Data: PubChem BioAssay AID256 (DTP/NCI, 2004)
Toxic doses and inconclusive results are not listed.

Tested on: CD2F1 mice, L1210 leukemia ip, survival T/C
Experiment: NCI In Vivo Anticancer Drug Screen. Data for tumor model L1210 Leukemia (intraperitoneal) in CD2F1 (CDF1) mice
Details: higher = longer survival
Summary of the method: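 In this screen, transplantable tumors were grown in mice given either the compound or its vehicle. Results were expressed as the treated measurement relative to the control measurement.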

[1] = endpoint: mean survival time, dose: 100.0 mg/kg/injection, schedule: Q01DX001 (ip), vehicle: saline with Tween-80
[2] = endpoint: mean survival time, dose: 200.0 mg/kg/injection, schedule: Q01DX001 (ip), vehicle: saline with Tween-80
[3] = endpoint: mean survival time, dose: 400.0 mg/kg/injection, schedule: Q01DX001 (ip), vehicle: saline with Tween-80

Structure (SMILES): [Cl][Pt]([Cl])[Cl].[NH-]C1CN2CCC1CC2 (configuration not stated)
- T/C (endpoint: mean survival time, dose: 2.5 mg/kg/injection, schedule: Q04DX003 (ip), vehicle: saline with Tween-80): 119 % of control
- T/C (endpoint: mean survival time, dose: 5.0 mg/kg/injection, schedule: Q04DX003 (ip), vehicle: saline with Tween-80): 122 % of control

Structure (SMILES): Nc1cccc2nc3ccccc3cc12
- T/C (endpoint: mean survival time, dose: 100.0 mg/kg/injection, schedule: Q01DX009 (ip), vehicle: saline with Tween-80): 93 % of control
- T/C (endpoint: mean survival time, dose: 100.0 mg/kg/injection, schedule: Q04DX003 (ip), vehicle: saline with Tween-80): 92 % of control
- T/C (endpoint: mean survival time, dose: 200.0 mg/kg/injection, schedule: Q01DX009 (ip), vehicle: saline with Tween-80): 95 % of control
- T/C (endpoint: mean survival time, dose: 200.0 mg/kg/injection, schedule: Q04DX003 (ip), vehicle: saline with Tween-80): 94 % of control
- T/C (endpoint: mean survival time, dose: 400.0 mg/kg/injection, schedule: Q04DX003 (ip), vehicle: saline with Tween-80): 91 % of control

Structure (SMILES): CO[C@]12[C@@H](COC(N)=O)C3=C(C(=O)C(C)=C(NCC4CCCO4)C3=O)N1C[C@@H]1[C@H]2N1C (some centres not stated)
- T/C (endpoint: mean survival time, dose: 1.5 mg/kg/injection, schedule: Q01DX001 (ip), vehicle: saline with Tween-80): 102 % of control
- T/C (endpoint: mean survival time, dose: 3.0 mg/kg/injection, schedule: Q01DX001 (ip), vehicle: saline with Tween-80): 98 % of control
- T/C (endpoint: mean survival time, dose: 6.0 mg/kg/injection, schedule: Q01DX001 (ip), vehicle: saline with Tween-80): 104 % of control
- T/C (endpoint: mean survival time, dose: 12.0 mg/kg/injection, schedule: Q01DX001 (ip), vehicle: saline with Tween-80): 104 % of control
- T/C (endpoint: mean survival time, dose: 24.0 mg/kg/injection, schedule: Q01DX001 (ip), vehicle: distilled water + Tween-80): 114 % of control
- T/C (endpoint: mean survival time, dose: 24.0 mg/kg/injection, schedule: Q01DX001 (ip), vehicle: saline with Tween-80): 116 % of control
- T/C (endpoint: mean survival time, dose: 25.0 mg/kg/injection, schedule: Q01DX001 (ip), vehicle: distilled water + Tween-80): 121 % of control
- T/C (endpoint: mean survival time, dose: 48.0 mg/kg/injection, schedule: Q01DX001 (ip), vehicle: distilled water + Tween-80): 124 % of control
- T/C (endpoint: mean survival time, dose: 100.0 mg/kg/injection, schedule: Q01DX001 (ip), vehicle: distilled water + Tween-80): 113 % of control

Structure (SMILES): CCOc1ccc2cc(S(=O)(=O)O)ccc2c1N
- T/C (endpoint: mean survival time, dose: 100.0 mg/kg/injection, schedule: Q04DX003 (ip), vehicle: saline): 93 % of control
- T/C (endpoint: mean survival time, dose: 200.0 mg/kg/injection, schedule: Q04DX003 (ip), vehicle: saline): 95 % of control
- T/C (endpoint: mean survival time, dose: 400.0 mg/kg/injection, schedule: Q04DX003 (ip), vehicle: saline): 103 % of control

Structure (SMILES): Cc1cnc(/C=N\NC(N)=S)c2cccc(N)c12
- T/C (endpoint: mean survival time, dose: 3.13 mg/kg/injection, schedule: Q01DX009 (ip), vehicle: Klucel (hydroxypropylcellulose) (HPC)): 124 % of control
- T/C (endpoint: mean survival time, dose: 3.13 mg/kg/injection, schedule: Q01DX009 (ip), vehicle: saline with Tween-80): 122 % of control
- T/C (endpoint: mean survival time, dose: 5.4 mg/kg/injection, schedule: Q03HX024 (ip), vehicle: Klucel (hydroxypropylcellulose) (HPC)): 123 % of control
- T/C (endpoint: mean survival time, dose: 8.0 mg/kg/injection, schedule: Q03HX024 (ip), vehicle: Klucel (hydroxypropylcellulose) (HPC)): 151 % of control
- T/C (endpoint: mean survival time, dose: 12.0 mg/kg/injection, schedule: Q03HX024 (ip), vehicle: Klucel (hydroxypropylcellulose) (HPC)): 112 % of control
- T/C (endpoint: mean survival time, dose: 25.0 mg/kg/injection, schedule: Q01DX009 (ip), vehicle: Klucel (hydroxypropylcellulose) (HPC)): 168 % of control
- T/C (endpoint: mean survival time, dose: 50.0 mg/kg/injection, schedule: Q01DX009 (ip), vehicle: Klucel (hydroxypropylcellulose) (HPC)): 89 % of control
- T/C (endpoint: median survival time, dose: 3.89 mg/kg/injection, schedule: Q01DX005 (ip), vehicle: other): 114 % of control
- T/C (endpoint: median survival time, dose: 6.48 mg/kg/injection, schedule: Q01DX005 (ip), vehicle: other): 122 % of control

Structure (SMILES): Cc1c2cc[n+](CCN3CCCCC3)cc2c(C)c2c1[nH]c1ccc(O)cc12
- T/C (endpoint: mean survival time, dose: 1.56 mg/kg/injection, schedule: Q01DX009 (ip), vehicle: suspension in saline): 160 % of control
- T/C (endpoint: mean survival time, dose: 12.5 mg/kg/injection, schedule: Q01DX009 (ip), vehicle: saline): 150 % of control
- T/C (endpoint: mean survival time, dose: 12.5 mg/kg/injection, schedule: Q01DX009 (ip), vehicle: suspension in saline): 121 % of control
- T/C (endpoint: mean survival time, dose: 50.0 mg/kg/injection, schedule: Q01DX009 (ip), vehicle: saline): 188 % of control
- T/C (endpoint: mean survival time, dose: 50.0 mg/kg/injection, schedule: Q01DX009 (ip), vehicle: suspension in saline): 92 % of control

Structure (SMILES): Cc1c2c(cc3c1CCC1(C)C3CCC1C(C)/C=C/C(C)C(C)C)CC(O)CC2 (configuration not stated)
- T/C [1]: 92 % of control
- T/C [2]: 95 % of control
- T/C [3]: 92 % of control

Structure (SMILES): C=CCOC(c1ccc2c(c1)OCO2)C(C)Br (configuration not stated)
- T/C [1]: 94 % of control
- T/C [2]: 94 % of control
- T/C [3]: 94 % of control

Structure (SMILES): O=C(CCl)c1ccc(Cl)cc1
- T/C (endpoint: mean survival time, dose: 12.0 mg/kg/injection, schedule: Q01DX009 (ip), vehicle: saline with Tween-80): 102 % of control
- T/C (endpoint: mean survival time, dose: 24.0 mg/kg/injection, schedule: Q01DX009 (ip), vehicle: saline with Tween-80): 104 % of control
- T/C (endpoint: mean survival time, dose: 48.0 mg/kg/injection, schedule: Q01DX009 (ip), vehicle: saline with Tween-80): 103 % of control
